{"source": "patent US20050250837A1", "about": "“Use of C-Raf inhibitors for the treatment of neurodegenerative diseases” (priority 2002, published 2005)", "key": {"[1]": {"tested_on": "GSK3β", "test": "GSK3β phosphorylation in neuronal cultures, Western blot", "assay_type": "cell-based, rat", "settings": "LK + 1 uM GW5074"}, "[2]": {"tested_on": "c-jun", "test": "c-jun phosphorylation (Ser63) and total c-jun, Western blot", "assay_type": "cell-based, rat", "settings": "LK + 1 uM GW5074, 1 and 3 hours", "protocol": "In granule neurons, phosphorylation of c-jun occurs within 1 hour of LK treatment (Ham et al., 1995; Watson et al. 1998). […] The same blot was reprobed with an antibody against total c-jun (lower panel).\nFor whole-cell lysates, the culture medium was discarded, the neurons washed twice with ice-cold phosphate-buffered saline (PBS), and lysed in lysis buffer (1% Triton, 20 mM Tris-HCl (pH 7.5), 150 mM NaCl, 1 mM Na2EDTA, 1 mM EGTA, 2.5 mM sodium pyrophosphate, 1 mM beta-glycerophosphate, 1 mM Na3VO4, 1 μg/ml leupeptin and 1× protease inhibitor mixture). Protein concentrations were measured using a Bradford protein assay kit (Bio-Rad), and equivalent amounts of protein were mixed with 6×SDS-PAGE sample buffer. Following heating at 95° C. for 5 min, proteins were subjected to SDS-polyacrylamide gel electrophoresis and transferred electrophoretically to polyvinylidene difluoride membrane (PVDF; Bio Rad). After staining with Ponceau S to verify uniformity of protein loads/transfer, the membranes were analyzed for immunoreactivity. Incubation with primary antibodies was performed overnight at 4° C. and with secondary antibodies for 1 h at room temperature. Immunoreactivity was developed by enhanced chemiluminescence (ECL; Amersham) and visualized by autoradiography. All antibodies were from Cell Signaling."}, "[3]": {"tested_on": "cerebellar granule neurons", "test": "MPP+-induced cell death in cerebellar granule neurons", "assay_type": "cell-based, rat", "settings": "HK + 200 uM MPP+, different concentrations of GW5074, 24 hours"}, "[4]": {"biological_target": "c-src (Homo sapiens, UniProt P12931)", "sequence (P12931 whole entry, species assumed)": "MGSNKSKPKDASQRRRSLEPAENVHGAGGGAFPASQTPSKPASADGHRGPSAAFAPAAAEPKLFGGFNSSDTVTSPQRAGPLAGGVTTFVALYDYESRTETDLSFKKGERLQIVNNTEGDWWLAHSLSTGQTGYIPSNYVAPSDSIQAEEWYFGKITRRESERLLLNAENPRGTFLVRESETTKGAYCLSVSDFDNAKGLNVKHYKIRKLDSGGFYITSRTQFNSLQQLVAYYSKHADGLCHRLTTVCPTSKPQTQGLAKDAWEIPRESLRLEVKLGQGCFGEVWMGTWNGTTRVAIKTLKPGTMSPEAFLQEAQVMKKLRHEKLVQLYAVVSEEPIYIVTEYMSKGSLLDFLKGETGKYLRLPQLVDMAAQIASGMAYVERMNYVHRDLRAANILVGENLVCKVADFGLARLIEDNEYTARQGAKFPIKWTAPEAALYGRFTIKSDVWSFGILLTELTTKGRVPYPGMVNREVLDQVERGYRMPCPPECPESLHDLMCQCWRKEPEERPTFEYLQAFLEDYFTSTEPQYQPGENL", "settings": "Lackey et al., 2000; cited from earlier work"}, "[5]": {"biological_target": "T1, C-Raf (Rattus norvegicus, UniProt P11345)", "T1 construct": "Activities of endogenous C-Raf and B-Raf activity was assayed by measuring the ability of kinase immunoprecipitated from neuronal lysates; endogenous in cells; host or cells: primary rat cerebellar granule neurons", "test": "C-Raf Ser259 phosphorylation in neuronal cultures, Western blot", "assay_type": "cell-based", "settings": "LK + 1 uM GW5074, 0-30 min", "text": "The cultures were lysed and the lysate subjected to Western blot analysis using a phopho-Ser259-specific antibody."}, "[6]": {"tested_on": "B-Raf", "test": "Activity of B-Raf immunoprecipitated from neuronal lysates, MEK substrate", "assay_type": "cell-based, rat", "settings": "LK + 1 uM GW5074, 1 hour", "protocol": "The reaction mixture was subjected to Western analysis using a phospho-MEK antibody as probe.\n(§1) Activities of endogenous C-Raf and B-Raf activity was assayed by measuring the ability of kinase immunoprecipitated from neuronal lysates to phosphorylate a kinase-dead recombinant GST-MEK1 substrate. Following immunoprecipitation and multiple washes with lysis buffer, lysis buffer supplemented with 350 mM NaCl, and kinase buffer (25 mM HEPES pH 7.4 and 10 mM MgCl2), in vitro kinase assays are performed on the immune complexes using purified recombinant GST-MEK1 K97M protein as a substrate in kinase buffer supplemented with 85 μM ATP for 35 minutes at 30° C. Reactions are stopped by the addition of 3×SDS sample buffer and boiled for five minutes. Proteins are resolved by SDS-PAGE and subjected to Western blotting. The level of phosphorylated MEK is detected by a phospho-MEK antibody."}, "[7]": {"biological_target": "C-Raf (Homo sapiens, UniProt P04049)", "sequence (P04049 whole entry, species assumed)": "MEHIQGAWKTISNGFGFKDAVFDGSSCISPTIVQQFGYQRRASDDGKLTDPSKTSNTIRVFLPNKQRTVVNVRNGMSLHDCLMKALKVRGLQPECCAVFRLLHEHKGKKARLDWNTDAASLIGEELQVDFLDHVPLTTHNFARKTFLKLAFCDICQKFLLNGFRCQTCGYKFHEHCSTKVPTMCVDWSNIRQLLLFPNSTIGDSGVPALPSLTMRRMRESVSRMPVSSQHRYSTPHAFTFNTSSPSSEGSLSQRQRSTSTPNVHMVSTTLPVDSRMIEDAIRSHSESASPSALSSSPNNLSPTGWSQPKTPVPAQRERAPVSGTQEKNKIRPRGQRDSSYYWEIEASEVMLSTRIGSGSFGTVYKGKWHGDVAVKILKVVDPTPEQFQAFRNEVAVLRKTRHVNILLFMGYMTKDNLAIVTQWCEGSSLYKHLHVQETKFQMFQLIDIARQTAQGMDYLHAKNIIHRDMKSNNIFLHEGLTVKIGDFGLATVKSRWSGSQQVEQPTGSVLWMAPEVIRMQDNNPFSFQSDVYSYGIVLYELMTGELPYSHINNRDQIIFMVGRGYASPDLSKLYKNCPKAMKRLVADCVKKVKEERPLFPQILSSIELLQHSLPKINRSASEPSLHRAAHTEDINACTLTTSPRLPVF", "test": "In vitro kinase assay, purified kinase (Upstate Kinase Profiling)", "assay_type": "biochemical", "experimental": "In general, in vitro kinase assays were performed using purified kinase and synthetic substrates under standard conditions using the Kinase Profiling service of Upstate Biotechnology. Briefly, for each assay 5-10 mU of purified kinase was used. […] Kinase activity was quantified by measuring ^33P incorporation by spotting an aliquot on P30 filters, washing in 50 mM phosphoric acid and scintillation counting. The buffer composition for C-Raf, JNK1, JNK2, JNK3, MEK1, MKK6, MKK7 was 50 mM Tris pH7.5, 0.1 mM EGTA, 10 mM Mg acetate and [γ-^33P-ATP]. The peptide substrates used were as follows: For C-Raf, 0.66 mg/ml MBP; for cdks, 0.1 mg/ml histone H1; for JNKs, 3 uM ATF2; for MEK1, 1 uM MAPK2; for MKK6, 1 uM of SAPK2a and for MKK7, 2 uM JNK1α."}, "[8]": {"biological_target": "T1, C-Raf", "test": "Activity of C-Raf immunoprecipitated from neuronal lysates, GST-MEK substrate, phospho-MEK Western", "assay_type": "cell-based", "protocol": "The immunoprecipitated C-Raf was used in in vitro kinase assays using GST-MEK as substrate and the reaction products subjected to Western analysis. Phosphorylation of MEK was detected using a phospho-MEK antibody. […] After 1 hour of treatment, the cultures were lysed, C-Raf immunoprecipitated from the lysate and used in an in vitro kinase assay with MEK as substrate. The reaction mixture was subjected to Western analysis using a phospho-MEK antibody as probe.\n(Hall-Jackson et al., 1999). […] Lysates from the cultures were used in a kinase reaction with MEK as substrate. […] Phosphorylation of MEK was detected by Western blot analysis using an phospho-MEK antibody and the same blot was reprobed with a C-Raf antibody.\nAfter treatment, cultures of 7-8-day old neurons were washed twice with ice-cold PBS and lysed in ice cold lysis buffer. The lysates were centrifuged for 10 min at 10,000 rpm at 4° C. Protein concentrations of the supernatant were measured using a Bradford protein assay kit (Bio-Rad), and equivalent amounts of protein were incubated overnight with primary antibody (1.0-2 ug) and then for 2 h with 20 ul Protein A/G PLUS-Agarose (Santa Cruz Biotech.) Immunoprecipitates were collected by centrifugation at 2,500 rpm for 5 min at 4° C. and washed three times with lysis buffer, and pellets resuspended in electrophoresis sample buffer (187.5 mM Tris-HCl (pH 6.8 at 25° C.), 6% SDS, 30% glycerol, 150 mM DTT, 0.03% bromophenol blue), boiled for 4 min and subjected to SDS-polyacrylamide gel electrophoresis.\nas §1"}, "[9]": {"tested_on": "mice", "test": "3-Nitropropionic acid (3-NP) model of Huntington's disease, striatal lesions", "assay_type": "in vivo", "settings": "GW5074 5 mg/kg body weight intraperitoneally", "from_the_text": "3-Nitropropionic acid (3-NP) administration in rodents and nonhuman primates has served as a useful experimental model for HD (reviewed in Brouillet et al., 1999). 3-NP is an irreversible inhibitor of succinate dehydrogenase (SDH; Complex II), which causes prolonged mitochondrial energy impairment and replicates most of the clinical and pathophysiological hallmarks of HD including selective striatal degeneration, spontaneous choreiform and dystonic movements (Brouillet et al., 1999).\nMice were purchased from Charles River (Wilmington, Mass.). 3-NP was dissolved in water and the solution brought to pH 7.4 with sodium hydroxide. 3NP was administered to 8-week old B6CBA male mice in ten intraperitoneal injections (50 mg/kg twice a day for 5 days). […] Control animals received saline injections. On the day following the 5 days of injection, mice were deeply anesthetized, intracardially perfused, brains removed, post fixed in 4% paraformaldehyde and cryoprotected. Coronal sections were cut on a cryostat at 50 micron and stained for Nissl substance (cresyl violet)."}, "[10]": {"biological_target": "p38 MAP kinase (Homo sapiens, UniProt Q16539)", "sequence (Q16539 whole entry)": "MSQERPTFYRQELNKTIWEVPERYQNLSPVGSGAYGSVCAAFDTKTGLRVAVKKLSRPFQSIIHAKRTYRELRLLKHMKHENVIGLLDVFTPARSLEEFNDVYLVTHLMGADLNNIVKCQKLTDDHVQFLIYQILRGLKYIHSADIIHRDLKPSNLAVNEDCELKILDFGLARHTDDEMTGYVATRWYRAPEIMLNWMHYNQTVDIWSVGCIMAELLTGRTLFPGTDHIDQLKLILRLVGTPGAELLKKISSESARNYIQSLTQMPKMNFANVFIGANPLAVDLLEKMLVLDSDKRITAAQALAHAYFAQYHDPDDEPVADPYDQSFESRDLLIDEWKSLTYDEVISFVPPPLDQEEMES", "settings": "Lackey et al., 2000; cited from earlier work"}}}
{"molecule": "O=C1Nc2ccc(I)cc2C1=Cc1cc(Br)c(O)c(Br)c1", "note": "[GW5074, 5-Iodo-3-[(3,5-dibromo-4-hydroxyphenyl)methylene]-2-indolinone]", "values": [{"measurement": "activation of GSK3β after switch to LK", "setting": "[1]", "result": "prevents the activation of GSK3"}, {"measurement": "LK-induced c-jun phosphorylation and synthesis", "setting": "[2]", "result": "prevents LK-induced c-jun phosphorylation and its increased synthesis"}, {"measurement": "MPP+-induced cell death", "setting": "[3]", "result": "reduced MPP^+-induced cell death"}, {"measurement": "effect on activity of c-src", "setting": "[4]", "result": "no effect"}, {"measurement": "phosphorylation of C-Raf at Ser259", "setting": "[5]", "result": "rapid increase in Ser259 phosphorylation"}, {"measurement": "B-Raf activity in neurons", "setting": "[6]", "result": "elevated further"}, {"measurement": "activity at 1 µM", "setting": "[7]", "result": 3, "unit": "%"}, {"measurement": "concentration inhibiting immunoprecipitated C-Raf when added in vitro", "setting": "[8]; GW5074 added to the immunoprecipitated enzyme in the kinase reaction", "result": "lower than 1 uM"}, {"measurement": "activity of C-Raf immunoprecipitated from treated cultures", "setting": "[8]; LK + GW5074 0.25-5 uM, 1 hour", "result": "marked induction"}, {"measurement": "3-NP-induced striatal degeneration", "setting": "[9]", "result": "completely prevented"}, {"measurement": "effect on activity of p38 MAP kinase", "setting": "[10]", "result": "no effect"}]}
